Data published in ChEMBL document CHEMBL1201862, “PubChem BioAssay data set” (2004).
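The compound was tested at five concentrations on cells cultured in 96-well plates, with a 48-hour exposure period. GI50 marks 50% less growth.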 Calls of active or inactive are those of the source. Cut-off read from the data, not from the text of the source: active = GI50 up to about 1.1 µM and inactive = higher.

What was measured:
Assay in all cases: NCI tumour cell line growth inhibition, 48 h
[1] = system: A549
[2] = system: ACHN
[3] = system: BT-549
[4] = system: CAKI-1
[5] = system: HCT-116
[6] = system: HOP-62
[7] = system: HOP-92
[8] = system: HT-29
[9] = system: IGROV-1
[10] = system: KM12
[11] = system: M14
[12] = system: MDA-MB-231
[13] = system: Malme-3M
[14] = system: NCI-H460
[15] = system: NCI/ADR-RES
[16] = system: OVCAR-8
[17] = system: PC-3
[18] = system: SF-539
[19] = system: SNB-19
[20] = system: SR

Structure (SMILES) | GI50 [1] | GI50 [2] | GI50 [3] | GI50 [4] | GI50 [5] | GI50 [6] | GI50 [7] | GI50 [8] | GI50 [9] | GI50 [10] | GI50 [11] | GI50 [12] | GI50 [13] | GI50 [14] | GI50 [15] | GI50 [16] | GI50 [17] | GI50 [18] | GI50 [19] | GI50 [20]
c1nnc(NCNc2nncs2)s1 | 23.6 µM (inactive) | 29.4 µM (inactive) | > 100 µM (inactive) | 9.48 µM (inactive) | 33.7 µM (inactive) | 46.5 µM (inactive) | > 100 µM (inactive) | 19.1 µM (inactive) | 49.1 µM (inactive) | 50.1 µM (inactive) | 43.1 µM (inactive) | 30.7 µM (inactive) | > 100 µM (inactive) | 6.18 µM (inactive) | > 100 µM (inactive) | 69.5 µM (inactive) | 57.1 µM (inactive) | 31 µM (inactive) | > 100 µM (inactive) | 36.8 µM (inactive)
O=C(CCc1ccc(O)cc1)NCCc1ccc(O)cc1 | > 100 µM (inactive) | 62.4 µM (inactive) | 62.4 µM (inactive) | > 100 µM (inactive) | > 100 µM (inactive) | > 100 µM (inactive) | > 100 µM (inactive) | > 100 µM (inactive) | > 100 µM (inactive) | > 100 µM (inactive) | > 100 µM (inactive) | > 100 µM (inactive) | > 100 µM (inactive) | > 100 µM (inactive) | > 100 µM (inactive) | > 100 µM (inactive) | > 100 µM (inactive) | > 100 µM (inactive) | > 100 µM (inactive) | > 100 µM (inactive)
N/C(=N/c1ccc(O)cc1)S(=O)(=O)O | > 100 µM (inactive) | > 100 µM (inactive) | > 100 µM (inactive) | > 100 µM (inactive) | > 100 µM (inactive) | > 100 µM (inactive) | > 100 µM (inactive) | > 100 µM (inactive) | > 100 µM (inactive) | > 100 µM (inactive) | > 100 µM (inactive) | > 100 µM (inactive) | > 100 µM (inactive) | > 100 µM (inactive) | > 100 µM (inactive) | > 100 µM (inactive) | > 100 µM (inactive) | > 100 µM (inactive) | > 100 µM (inactive) | > 100 µM (inactive)
CCCCCc1nnc(NS(=O)(=O)c2ccc(NC(=O)OCC(C)C)cc2)s1 | 34.2 µM (inactive) | 34.7 µM (inactive) | 32.1 µM (inactive) | 36.2 µM (inactive) | 26.2 µM (inactive) | 44.5 µM (inactive) | 24.1 µM (inactive) | 26.8 µM (inactive) | 25.7 µM (inactive) | 36.1 µM (inactive) | 41.9 µM (inactive) | 36.2 µM (inactive) | 34.9 µM (inactive) | 31 µM (inactive) | 39.4 µM (inactive) | 32.2 µM (inactive) | 36.8 µM (inactive) | 26.8 µM (inactive) | 69.3 µM (inactive) | 16.4 µM (inactive)
Cc1cc(NS(=O)(=O)c2ccc(NC(=O)c3ccc4nc5ccccc5c(Nc5ccc(S(=O)(=O)N=C(N)N)cc5)c4c3)cc2)no1 | 16.9 µM (inactive) | 13.6 µM (inactive) | 20.6 µM (inactive) | 18.9 µM (inactive) | 17.3 µM (inactive) | 17.5 µM (inactive) | 14.7 µM (inactive) | 21.4 µM (inactive) | 16.2 µM (inactive) | 17.1 µM (inactive) | 15.1 µM (inactive) | 14.5 µM (inactive) | 15.6 µM (inactive) | 17.4 µM (inactive) | 25.2 µM (inactive) | 18.2 µM (inactive) | 16.9 µM (inactive) | 20.8 µM (inactive) | 29 µM (inactive) | 18.3 µM (inactive)
C(=N\c1nc2cc3sc(/N=C/c4ccccc4)nc3cc2s1)/c1ccccc1 | 9.66 µM (inactive) | 55.8 µM (inactive) | 54.2 µM (inactive) | > 79.4 µM (inactive) | 44 µM (inactive) | > 68.2 µM (inactive) | > 76.9 µM (inactive) | 37.1 µM (inactive) | > 63.2 µM (inactive) | > 100 µM (inactive) | > 100 µM (inactive) | > 95.3 µM (inactive) | > 65.3 µM (inactive) | 7.52 µM (inactive) | > 80.4 µM (inactive) | > 66.2 µM (inactive) | 98.4 µM (inactive) | 32.5 µM (inactive) | > 100 µM (inactive) | 10.6 µM (inactive)
Cc1cc(N(CCC#N)CCC#N)ccc1/C=N/NC(=O)c1ccccc1 | 24.4 µM (inactive) | 85.3 µM (inactive) | 42.7 µM (inactive) | 23.1 µM (inactive) | 7.57 µM (inactive) | 31.8 µM (inactive) | 76.4 µM (inactive) | 3.79 µM (inactive) | 12.9 µM (inactive) | 3.54 µM (inactive) | 40.6 µM (inactive) | 15 µM (inactive) | 33.2 µM (inactive) | 9.1 µM (inactive) | 8.63 µM (inactive) | 23.5 µM (inactive) | 21.8 µM (inactive) | 7.76 µM (inactive) | > 59.2 µM (inactive) | 1.34 µM (inactive)
COc1ccc2[nH]c3c(c2c1)COc1ccccc1C3=O | > 100 µM (inactive) | > 100 µM (inactive) | 37.1 µM (inactive) | > 100 µM (inactive) | > 100 µM (inactive) | > 100 µM (inactive) | > 100 µM (inactive) | > 100 µM (inactive) | > 100 µM (inactive) | > 100 µM (inactive) | > 100 µM (inactive) | > 100 µM (inactive) | > 100 µM (inactive) | > 100 µM (inactive) | > 100 µM (inactive) | > 100 µM (inactive) | > 100 µM (inactive) | 89.1 µM (inactive) | > 100 µM (inactive) | > 100 µM (inactive)
O=C1c2cccc3cc([N+](=O)[O-])cc(c23)C(=O)N1Nc1ccc([N+](=O)[O-])cc1[N+](=O)[O-] | 16.3 µM (inactive) | 0.557 µM (active) | 19.4 µM (inactive) | 15.1 µM (inactive) | 10.9 µM (inactive) | 14 µM (inactive) | 17.9 µM (inactive) | 12.9 µM (inactive) | 12.4 µM (inactive) | 14.6 µM (inactive) | 24.7 µM (inactive) | 16.8 µM (inactive) | 20.1 µM (inactive) | 7.41 µM (inactive) | 19.1 µM (inactive) | 13 µM (inactive) | 17.9 µM (inactive) | 10.6 µM (inactive) | 18.2 µM (inactive) | 2.64 µM (inactive)
CCN(CC)C(=S)SS(=O)(=O)c1ccccc1C(=O)O | 10.8 µM (inactive) | > 70.8 µM (inactive) | > 100 µM (inactive) | > 78 µM (inactive) | > 96.6 µM (inactive) | > 100 µM (inactive) | > 100 µM (inactive) | > 100 µM (inactive) | > 100 µM (inactive) | > 100 µM (inactive) | > 96.4 µM (inactive) | > 100 µM (inactive) | > 96.4 µM (inactive) | > 20 µM (inactive) | > 100 µM (inactive) | > 100 µM (inactive) | > 100 µM (inactive) | > 100 µM (inactive) | > 94.2 µM (inactive) | 3.6 µM (inactive)
